Measurements taken from patent US20220324770A1, “NITRIFICATION INHIBITORS” (The University of Melbourne, priority 2019, published 2022).

Tests used:
[1] = system: Terang soil; assay: Soil microcosm incubation (nitrification of applied ammonium), Terang soil
Description: The soil used in this study was collected from four different locations in Victoria, Australia: (i) a wheat cropping soil from Horsham (36° 45′S, 142° 07′ E), (ii) a rotational cropping soil from Dahlen (36° 37′S, 142° 09′ E), (iii) a vegetable growing soil from Clyde (38° 08′S, 145° 20′ E), and (iv) a pasture soil from Terang (38° 15′S, 142° 52′E). In addition, a sugarcane cropping soil from South Johnstone in northern Queensland (17° 34′S, 145° 57′ E) was also studied. The water content of the soil was calculated before commencing each experiment, from samples that were oven-dried to constant weight. The soil's water-filled pore space (WFPS) was in the range 52%-61%, which is within the recommended 50-70% range for microbial activity due to oxygen and nutrient availability (Fichtner, T., et al., Applied Sciences, 2019, 9, 496).
Soil microcosm incubations were carried out in 250 ml polypropylene specimen containers (Sarstedt, Germany), containing 18.24 g oven dry-weight equivalent of soil. Microcosms were re-wetted and pre-incubated at the test temperature for seven days to revive soil microbial activity. Following pre-incubation, the remaining volume to reach the desired water-filled pore spaces (WFPS %) was applied as one of the following treatment solutions; (NH4)2SO4(Control), (NH4)2SO4+DMPP, or (NH4)2SO4+one of Compounds 1-23. Each treatment was applied in triplicate per soil type, so that n=3 at each time point.
Treatment solutions were prepared such that each microcosm received (NH4)2SO4 at a rate of 100 mg N per kg soil, Compounds 1-23 at 10 mol % of applied N, or DMPP at one of 1.5, 3.6 or 10 mol % of applied N, referred to as L-DMPP, M-DMPP or H-DMPP respectively.
The microcosms were incubated for 0, 3, 7, 14, 21 or 28 days, where day 0 samples were extracted following 1-hour incubation post-treatment. Soil microcosms were aerated and moisture levels were replenished based on weight loss every few days throughout the incubation period.
At the end of each incubation period, soil microcosms were destructively sampled by treatment with 2M KCl (100 mL). After shaking for 1 hour, soil-KCl solutions were filtered (Whatman 42) before storing the filtrates at −20° C. until the conclusion of the experiment. All KCl extracts were then analysed by Segmented Flow Analysis (San++, Skalar, Breda, The Netherlands) for the concentration of nitrogen from ammonium (NH4^+—N) and nitrogen from NO3 and NO2 (NOx^−—N) after appropriate dilutions. Results are reported as the mean of three replicates, errors reported are standard errors of the mean.
Nitrification calculations were performed as previously reported (Aulakh, M., et al., Biology and Fertility of Soils 2001, 33, 258-263; Mahmood, T., et al., Soil Research 2017, 55, 715-722) without correction for the initial baseline concentrations of NH4^+—N or NO3^− N in the untreated soil. For each treatment nitrified NH4^+—N (%) was calculated according to eqn. 1:
where [NH4^+—N]0 is the NH4^+—N concentration (in mg N kg^−1 soil) of the soil on day 0 and [NH4^+—N]t is the NH4^+—N concentration (in mg N kg^−1 soil) of the soil at a given time point t.

[2] = temperature of 35° C.; cited from earlier work

Cc1c[nH]nc1C.O=P(O)(O)O [DMPP, 3,4-dimethylpyrazole phosphate, reference compound]
Nitrified NH4+—N (%) Day 3 ([1]; Terang soil pH 6.5, 25° C., day 3, compounds 10 mol % of applied N, L-DMPP 1.5 mol %, (NH4)2SO4 100 mg N per kg soil): 23.5 ± 3.7%
Nitrified NH4+—N (%) Day 7 ([1]; Terang soil pH 6.5, 25° C., day 7, compounds 10 mol %, L-DMPP 1.5 mol %): 47.8 ± 2.0%
Nitrified NH4+—N (%) Day 14 ([1]; Terang soil pH 6.5, 25° C., day 14, compounds 10 mol %, L-DMPP 1.5 mol %): 89.6 ± 3.1%
Nitrified NH4+—N (%) Day 28 ([1]; Terang soil pH 6.5, 25° C., day 28, compounds 10 mol %, L-DMPP 1.5 mol %): 100 ± 2.5%
retaining NH4+—N in the soil compared with the fertilised control ([1]; Terang soil, 25° C.): most effective treatments
time DMPP remains effective [2]: only one week
